# What was measured:
# Opioid (OP1/OP2/OP3) = assay: Opioid receptor GTPγS assays; format: biochemical, human
# Procedure: Reagents used were the following: Assay buffer (20 mM HEPES, pH 7.4; 100 mM NaCl; 10 μg/mL saponin; 30 mM MgCl2); Membranes (recombinant human receptor membrane extracts were thawed on ice and diluted in assay buffer to give 1000 μg/mL ([…]) and kept on ice); GDP (diluted in assay buffer to give 30 μM solution (3 μM final concentration); beads (PVT-WGA (Amersham, RPNQ001), diluted in assay buffer at 25 mg/mL (0.25 mg/10 μL)); GTPγ^35S (Perkin Elmer, NEG030X), diluted in assay buffer to give 0.1 nM (final concentration); and ligand (agonist/antagonist diluted in assay buffer).
# Membranes were mixed with GDP (1:1) and incubated for at least 15 minutes on ice. In parallel GTPγ^35S was mixed with the beads (1:1) just before starting the reaction. The following reagents were successively added in the wells of an Optiplate (Perkin Elmer): 50 μL test compound or reference ligand, 20 μL of the membranes:GDP mix (then 15 minute incubation for antagonist test), 10 μL of reference agonist at historical EC80 (for antagonist test) or 10 μL of assay buffer (for agonist test) and 20 μL of the GTPγ^35S:beads mix. […] The plates were then centrifuged for 10 minutes at 2000 rpm and incubated at room temperature for 1 hour and counted for 1 min/well with a Perkin Elmer TopCount reader.
# [1] = tested on: Glutamate (mGlu3/mGlu5/mGlu7); assay: Glutamate receptor screen (Aequorin mGlu3/mGlu5, cAMP mGlu7); format: cell-based, human
# Procedure: For mGlu3 and mGlu5, CHO-K1 cells coexpressing mitochondrial apoaequorin and recombinant human receptor grown to mid-log phase in culture media without antibiotics and supplemented with doxycycline, (final concentration of 600 ng doxycycline/mL), was detached with PBS-EDTA, centrifuged and resuspended in assay buffer (HBSS, 2.1 mM CaCl2, 3 μg/mL GPT (Glutamate-Pyruvate transaminase), 4 mM MEM Sodium Pyruvate, 0.1% BSA protease free) at a concentration of 1×10^6 cells/mL. Cells were incubated at room temperature for at least 4 hours with coelenterazine h. Reference agonist/antagonist was tested to evaluate the performance of the assay and to determine EC50/IC50. […]
# Cells expressing the human recombinant receptor of interest were grown in media without antibiotic and detached by gentle flushing with PBS-EDTA (5 mM EDTA), recovered by centrifugation and resuspended in assay buffer (KRH: 5 mM KCl, 1.25 mM MgSO4, 124 mM NaCl, 25 mM HEPES, 13.3 mM glucose, 1.25 mM KH2PO4, 1.45 mM CaCl2, 0.5 g/L BSA). […] Lysis buffer was added and after a 1 hour incubation, cAMP concentrations was determined according to the manufacturer specification with the HTRF kit. […] Lysis buffer was added and after a 1 hour incubation, cAMP concentrations were determined according to the manufacturer specification, with the HTRF kit.
# Calcitonin (CGRP) = molecular target: T1, Calcitonin (CGRP) (Homo sapiens, UniProt O60894+Q16602); assay: CGRP receptor Aequorin assay; format: cell-based
# T1 construct: expressed in transfected cells; host or cells: CHO-AEQ (CHO-K1 with mitochondrial apoaequorin)
# Procedure: CHO-K1 cells coexpressing mitochondrial apoaequorin and the recombinant human receptor of interest were grown to mid-log phase in culture media without antibiotics and then detached with PBS-EDTA, centrifuged and resuspended in assay buffer (DMEM/HAM's F12 with HEPES, without phenol red+0.1% BSA, protease free) at a concentration of 1×10^6 cell/mL. Cells were incubated at room temperature for at least 4 hours with coelenterazine h. Reference agonist/antagonist was tested to evaluate the performance of the assay and to determine EC50/IC50.
# 50 μL of the cell suspension was mixed with 50 μL of test or reference agonist in a 96-well plate. […] For antagonist testing, 100 μL of the reference agonist at its EC80 was injected on the mix of cells and test compound, following an incubation of 15 minutes after the first injection. The resulting emission of light was r recorded using Hamamatsu Functional Drug Screening System 6000 (FDSS 6000) luminometer. To standardize the emission of recorded light (and determine of the “100% signal”) across plates and across different experiments, some wells contained 100 μM digitonin or a saturating concentration of ATP (20 μM).
# human α2A receptor = human α2A receptor (Homo sapiens, UniProt P08913); assay: GTPγS antagonist assay, α2A; format: biochemical; conditions: read-out: IC50, α2A antagonism
# [2] = tested on: NMDA (NR1/NR2A/NR2B/NR2C/NR2D); assay: NMDA receptor Fluo-8 calcium FLIPR assay, agonist and antagonist; format: cell-based, human; conditions: NMDA channels in HEK293
# Procedure: The following channels were evaluated: Cloned NMDA receptor (NR1/NR2A) channel (encoded by the GRIN1 and GRIN2A genes, coexpressed in HEK293 cells; Cloned NMDA receptor (NR1/NR2B) channel (encoded by the GRIN1 and GRIN2B genes, coexpressed in HEK293 cells; Cloned NMDA receptor (NR1/NR2C) channel (encoded by the GRIN1 and GRIN2C genes, coexpressed in HEK293 cells; and Cloned NMDA receptor (NR1/NR2D) channel (encoded by the GRIN1 and GRIN2D genes, transiently coexpressed in HEK293 cells.
# For the agonist assessment, the effect of 2-CF3-DHE was evaluated in the absence of the positive control agonist. The signal, elicited in the presence of the agonist (100 μM Glutamic acid+20 μM Glycine), was set to 100% activation and the signal in the presence of the vehicle control (Mg^2+-free HB-PS) was set to 0% activation.
# For the antagonist assessment, NR1/NR2A and NR1/NR2B was activated with the positive control agonist (100 μM Glutamic acid+20 μM Glycine). The ability of 2-CF3-DHE to inhibit the signal was examined after agonist stimulation and compared to the positive control antagonist (MK-801).
# Sequence of human α2A receptor (P08913 whole entry): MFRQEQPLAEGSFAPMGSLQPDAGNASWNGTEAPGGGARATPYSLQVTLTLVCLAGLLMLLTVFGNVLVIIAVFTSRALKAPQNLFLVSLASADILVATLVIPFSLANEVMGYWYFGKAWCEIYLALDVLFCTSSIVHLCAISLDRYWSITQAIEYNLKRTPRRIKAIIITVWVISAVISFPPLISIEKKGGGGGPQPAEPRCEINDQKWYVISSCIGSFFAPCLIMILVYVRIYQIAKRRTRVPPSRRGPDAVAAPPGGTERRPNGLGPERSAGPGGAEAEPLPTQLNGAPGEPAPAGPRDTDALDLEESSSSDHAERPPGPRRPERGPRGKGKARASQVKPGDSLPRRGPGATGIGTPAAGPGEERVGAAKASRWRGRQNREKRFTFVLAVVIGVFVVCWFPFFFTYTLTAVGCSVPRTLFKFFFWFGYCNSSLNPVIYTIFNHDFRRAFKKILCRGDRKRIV
# T1 sequence (Q16602 23-461): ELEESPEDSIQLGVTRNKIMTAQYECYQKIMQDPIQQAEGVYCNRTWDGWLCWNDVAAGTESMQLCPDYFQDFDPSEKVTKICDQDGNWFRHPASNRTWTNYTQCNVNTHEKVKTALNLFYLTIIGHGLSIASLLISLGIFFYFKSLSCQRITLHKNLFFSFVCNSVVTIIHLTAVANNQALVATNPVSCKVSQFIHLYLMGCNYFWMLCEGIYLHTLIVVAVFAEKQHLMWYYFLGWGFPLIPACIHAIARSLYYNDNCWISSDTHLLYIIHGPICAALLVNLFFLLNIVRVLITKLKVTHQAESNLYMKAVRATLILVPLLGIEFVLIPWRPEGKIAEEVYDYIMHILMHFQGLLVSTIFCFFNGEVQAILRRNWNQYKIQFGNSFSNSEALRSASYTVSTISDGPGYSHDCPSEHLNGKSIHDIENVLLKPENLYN
# T1 sequence (O60894 27-148 partner): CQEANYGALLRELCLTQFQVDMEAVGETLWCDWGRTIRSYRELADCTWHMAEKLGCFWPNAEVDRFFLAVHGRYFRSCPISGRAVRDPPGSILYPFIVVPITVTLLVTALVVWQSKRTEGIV
compound,measurement,setting,value
CN1C[C@H](C(=O)N[C@]2(C)O[C@@]3(O)[C@@H]4CCCN4C(=O)[C@H](Cc4ccccc4)N3C2=O)CC2c3cccc4[nH]c(C(F)(F)F)c(c34)CC21 (some centres unmarked) [2-CF3-dihydroergotamine],Activity (Agonism: EC50; Antagonism: IC50),Opioid (OP1/OP2/OP3),Inactive
same,Activity (Agonism: EC50; Antagonism: IC50),[1],Inactive
same,Activity (Agonism: EC50; Antagonism: IC50),Calcitonin (CGRP),Inactive
same,IC50,human α2A receptor,404 nM
same,Activity (Agonism: EC50; Antagonism: IC50),[2],Inactive
